Like-named read-outs stand apart in the source and are kept apart here.
What was measured:
[1] = biological target: EZH2 (Homo sapiens, UniProt Q15910); assay: EZH2 assay (rPRC2, 3H SAM methyl transfer to biotinylated oligonucleosomes, FlashPlate); assay type: biochemical
Experimental: EZH2 Assay: Assays were carried out by mixing rPRC2 together with biotinylated oligonucleosome substrates in the presence of the radio-labeled enzyme co-factor, S-adenosyl-L-methionine (^3H SAM) (Perkin Elmer) and monitoring the enzymatically mediated transfer of tritiated methyl groups from ^3H SAM to histone lysine residues. The amount of resulting tritiated methyl histone product was measured by first capturing the biotinylated oligonucleosomes in streptavidin (SAV) coated FlashPlates (Perkin Elmer), followed by a wash step to remove un-reacted ^3H SAM, and then counting on a TopCount NXT 384 well plate scintillation counter (Perkin Elmer). The final assay conditions for EZH2 were as follows: 50 mM Tris Buffer pH 8.5, 1 mM DTT, 69 μM Brij-35 detergent, 5.0 mM MgCl2, 0.1 mg/mL BSA, 0.2 μM ^3H SAM, 0.2 μM biotinylated oligonucleosomes, 3.6 μM H3K27me3 peptide and 2 nM EZH2.
A 12.5 μL volume of the HMT enzyme, H3K27me3 peptide and oligonucleosome substrate in assay buffer was added to each well of the assay plate using a Multidrop Combi (ThermoFisher). Compounds were pre-incubated with the enzyme for 20 min, followed by initiation of the methyltransferase reaction by addition of 12.5 μL of ^3H SAM in assay buffer (final volume=25 μL). The final concentrations of compounds ranged from a top default concentration of 80 μM down to 0.16 μM in ten 2-fold dilution steps. Reactions were carried out for 60 minutes and quenched with 20 μL per well of 1.96 mM SAH, 50 mM Tris pH 8.5, 200 mM EDTA. Stopped reactions were transferred to SAV coated Flashplates (Perkin Elmer), incubated for 120 min, washed with a plate washer, and then read on the TopCount NXT (1.0 min/well) to measure the amount of methyl histone product formed during the reaction.

[2] = tested on: H3K27me3 mark in HeLa cells; assay: H3K27me3 Alpha Hela Assay (AlphaLISA); assay type: cell-based; settings: Homo sapiens, 72 hrs, read-out: EZH2_Cell_H3K27me3_Alpha_HeLa (EC50_K27me3)
Experimental: Ten different doses of each test compound (in a series of 3-fold dilutions) were plated in duplicate 384-well tissue culture treated plates (Catalog #781080; Greiner Bio One; Monroe, N.C.). Hela cells grown in culture were trypsinized and counted using a Countess® cell counter (Catalog # C10281; Life Technologies, Grand Island, N.Y.). Cell were diluted to 67,000 cells per mL in 10% DMEM (Catalog #10569-010 Life Technologies, Grand Island, N.Y.) and 15 μL (1,000 cells) were plated into each well using the Biotek MicroFlo™ Select Dispenser (BioTek Instruments, Inc. Vermont, USA),) of the 384-well plate. Plates were incubated at 37° C./5% CO2 for 72 hrs. One of the duplicate plates was processed for HeLa assay and the other for viability.
To the plate processed for AlphaLISA was added 5 μL per well Cell-Histone Lysis buffer (1λ) (Catalog # AL009F1 Perkin Elmer; Waltham, Mass.) and the plate was incubated at RT for 30 minutes on a plate shaker with low speed (Model#4625-Q Thermo Scientific; Waltham, Mass.). Then, 10 μL per well Histone Extraction buffer (catalog # AL009F2; Perkin Elmer; Waltham, Mass.) was added and the plate further incubated at RT for 20 min on plate shaker with low speed. To each well was then added 10 μL per well of a 5× mix of anti-K27me3 acceptor beads plus Biotinylated anti-Histone H3 (C-ter) Antibody (diluted to 3 nM final) (Catalog #AL118 Perkin Elmer; Waltham, Mass.). Dilution of the acceptor beads and then anti-Histone H3 was with 1× Histone Detection buffer (Catalog # AL009F3 Perkin Elmer; Waltham, Mass.) which was produced diluted from the 10× stock provided. The plate was sealed with an aluminum plate sealer and incubated at 23° C. for 60 min. We then added 10 μL 5× solution of Streptavidin Donor beads (Catalog #6760002 Perkin Elmer; Waltham, Mass.) (20 μg/mL final in 1× Histone Detection Buffer), sealed the plate with Aluminum plate sealer and incubated at 23° C. for 30 min. The plates were then read using an EnVision-Alpha Reader (model #2104 Perkin Elmer; Waltham, Mass.).
Data from both assays was analyzed using Assay Assistant (Constellation Pharmaceuticals In-house product) and Activity Base (IDBS Ltd, Surrey, UK) template. Data files were imported to Assay Assistant and assay conditions were specified. A unique Analysis ID was created and the data files exported to Activity Base. An analysis template was created on Activity Base to measure dose-dependent inhibition of H3K27me3 mark and cell viability respectively. Readout of DMSO wells were used to normalize the data. Resulting curves were fitted using Activity base software Model 205 (IDBS Ltd, Surrey, UK). The data was checked for quality, validated and integrated in excel format using SARview (IDBS Ltd, Surrey, UK).

Chain of EZH2 (Q15910 whole entry): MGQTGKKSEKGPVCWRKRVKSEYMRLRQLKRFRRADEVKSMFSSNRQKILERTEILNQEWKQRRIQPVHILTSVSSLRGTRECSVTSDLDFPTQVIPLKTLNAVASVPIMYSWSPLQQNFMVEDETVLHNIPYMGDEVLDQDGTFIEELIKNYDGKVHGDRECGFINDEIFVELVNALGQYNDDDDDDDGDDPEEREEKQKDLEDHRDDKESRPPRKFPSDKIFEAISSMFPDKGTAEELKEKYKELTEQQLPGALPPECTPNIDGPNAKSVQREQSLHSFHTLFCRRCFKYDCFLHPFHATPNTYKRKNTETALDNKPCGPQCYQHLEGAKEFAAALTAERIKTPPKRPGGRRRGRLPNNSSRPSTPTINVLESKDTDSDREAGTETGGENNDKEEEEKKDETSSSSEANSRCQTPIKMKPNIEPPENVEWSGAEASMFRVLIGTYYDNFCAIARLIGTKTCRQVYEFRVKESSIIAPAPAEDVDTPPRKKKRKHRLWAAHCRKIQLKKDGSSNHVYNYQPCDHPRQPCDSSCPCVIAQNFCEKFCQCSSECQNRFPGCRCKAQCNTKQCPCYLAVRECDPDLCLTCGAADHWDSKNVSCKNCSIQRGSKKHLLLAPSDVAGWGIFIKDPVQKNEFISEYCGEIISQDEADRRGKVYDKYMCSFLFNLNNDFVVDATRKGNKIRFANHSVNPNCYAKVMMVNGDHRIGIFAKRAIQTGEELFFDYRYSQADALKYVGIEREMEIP
Chain of EZH2 (O75530 whole entry partner): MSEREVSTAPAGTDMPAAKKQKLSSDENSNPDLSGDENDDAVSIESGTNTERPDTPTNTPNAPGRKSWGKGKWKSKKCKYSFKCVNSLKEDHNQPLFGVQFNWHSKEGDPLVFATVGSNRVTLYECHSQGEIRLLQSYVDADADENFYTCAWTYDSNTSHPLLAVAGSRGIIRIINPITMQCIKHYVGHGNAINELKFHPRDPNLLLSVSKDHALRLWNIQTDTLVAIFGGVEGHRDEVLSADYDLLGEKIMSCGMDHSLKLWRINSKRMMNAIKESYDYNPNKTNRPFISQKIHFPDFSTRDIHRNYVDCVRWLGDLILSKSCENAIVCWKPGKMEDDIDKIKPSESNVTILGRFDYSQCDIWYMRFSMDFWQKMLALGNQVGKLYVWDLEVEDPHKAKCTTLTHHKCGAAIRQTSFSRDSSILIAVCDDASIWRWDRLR
Chain of EZH2 (Q15022 whole entry partner): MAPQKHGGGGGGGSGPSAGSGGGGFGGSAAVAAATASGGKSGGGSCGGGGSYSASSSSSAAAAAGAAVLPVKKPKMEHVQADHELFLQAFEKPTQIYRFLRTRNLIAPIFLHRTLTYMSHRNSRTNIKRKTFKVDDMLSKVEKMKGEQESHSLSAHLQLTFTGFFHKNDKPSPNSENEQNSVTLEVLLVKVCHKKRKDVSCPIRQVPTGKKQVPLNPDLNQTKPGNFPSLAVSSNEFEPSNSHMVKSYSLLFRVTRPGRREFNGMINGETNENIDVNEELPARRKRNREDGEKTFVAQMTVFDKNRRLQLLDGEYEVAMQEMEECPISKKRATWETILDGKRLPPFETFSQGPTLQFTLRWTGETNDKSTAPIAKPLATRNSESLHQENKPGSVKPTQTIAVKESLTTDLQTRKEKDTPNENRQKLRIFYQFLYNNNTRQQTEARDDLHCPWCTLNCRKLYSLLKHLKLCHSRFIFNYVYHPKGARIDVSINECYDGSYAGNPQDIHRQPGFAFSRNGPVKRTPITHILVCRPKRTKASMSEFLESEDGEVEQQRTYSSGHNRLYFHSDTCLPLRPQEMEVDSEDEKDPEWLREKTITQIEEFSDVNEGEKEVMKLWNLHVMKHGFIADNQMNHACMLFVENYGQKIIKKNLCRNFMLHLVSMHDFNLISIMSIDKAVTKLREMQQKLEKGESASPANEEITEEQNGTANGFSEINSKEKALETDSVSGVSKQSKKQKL

SMILES | IC50 [1] [nM] | EC50 [2] [nM] | IC50 ([1]; 2 nM EZH2, 0.2 μM 3H SAM, 0.2 μM biotinylated oligonucleosomes, 3.6 μM H3K27me3 peptide, 60 min, read-out: EZH2_nuc_BSA_Brij_1.5 (IC50)) [nM]
COc1cc(C)[nH]c(=O)c1CNC(=O)c1c(C)n([C@H](C)C2CCN(C(=O)C3CCC(C)CC3)CC2)c2ccccc12 (mixture of isomers) [Compound 234] | < 100 | < 400 | –
CCC(F)(F)CN1CCC([C@@H](C)n2c(C)c(C(=O)NCc3c(OC)cc(C)[nH]c3=O)c3ccccc32)CC1 [Compound 108] | < 100 | < 400 | –
COc1cc(C)[nH]c(=O)c1CNC(=O)c1c(C)n([C@H](C)C2CCN(C(=O)C(C)(C)C(F)(F)F)CC2)c2ccccc12 [Compound 114] | < 100 | < 400 | –
COC(C)(C)CN1CCC([C@@H](C)n2c(C)c(C(=O)NCc3c(C)cc(C)[nH]c3=O)c3ccccc32)CC1 [Compound 127] | < 100 | < 400 | –
COc1cc(C)[nH]c(=O)c1CNC(=O)c1c(C)n([C@H](C)C2CCN(CC(C)(C)OC)CC2)c2ccccc12 [Compound 128] | – | < 400 | –
CCCc1cc(C)[nH]c(=O)c1CNC(=O)c1c(C)n([C@H](C)C2CCN(S(=O)(=O)CC)CC2)c2ccccc12 [Compound 132] | – | < 400 | –
COc1cc(C)[nH]c(=O)c1CNC(=O)c1c(C)n([C@H](C)C2CCN(CC3(C(F)(F)F)CCC3)CC2)c2ccccc12 [Compound 135] | – | < 400 | –
CCS(=O)(=O)N1CCC([C@@H](C)n2c(C)c(C(=O)NCc3c(OCC(F)(F)F)cc(C)[nH]c3=O)c3ccccc32)CC1 [Compound 163] | – | 400 to 2000 | –
COc1cc(C)[nH]c(=O)c1CNC(=O)c1c(C)n([C@H](C)C2CCN(CC(C)=O)CC2)c2ccccc12 [Compound 169] | – | – | < 100
COc1cc(C)[nH]c(=O)c1CNC(=O)c1c(C)n([C@H](C)C2CCN(CC(F)(F)CO)CC2)c2ccccc12 [Compound 175] | < 100 | 400 to 2000 | –
COc1cc(C)[nH]c(=O)c1CNC(=O)c1c(C)n([C@H](C)C2CCN(C(C)C(F)F)CC2)c2ccccc12 (some centres unmarked) [Compound 177] | < 100 | < 400 | –
COc1cc(C)[nH]c(=O)c1CNC(=O)c1c(C)n([C@H](C)C2CCN(CC3CCO3)CC2)c2ccccc12 (some centres unmarked) [Compound 179] | < 100 | 400 to 2000 | –
COc1cc(C)[nH]c(=O)c1CNC(=O)c1c(C)n([C@H](C)C2CCN(CC3COC3)CC2)c2ccccc12 [Compound 180] | < 100 | > 2000 | –
COCC(F)(F)CN1CCC([C@@H](C)n2c(C)c(C(=O)NCc3c(OC)cc(C)[nH]c3=O)c3ccccc32)CC1 [Compound 181] | < 100 | < 400 | –
COc1cc(C)[nH]c(=O)c1CNC(=O)c1c(C)n([C@H](C)C2CCN(CC(C)(C)C#N)CC2)c2ccccc12 [Compound 185] | < 100 | 400 to 2000 | –
COc1cc(C)[nH]c(=O)c1CNC(=O)c1c(C)n([C@H](C)C2CCN(C(=O)CC#N)CC2)c2ccccc12 [Compound 186] | < 100 | 400 to 2000 | –
COc1cc(C)[nH]c(=O)c1CNC(=O)c1c(C)n([C@H](C)C2CCN(C(=O)C3(C)COC3)CC2)c2ccccc12 [Compound 189] | < 100 | 400 to 2000 | –
COc1cc(C)[nH]c(=O)c1CNC(=O)c1c(C)n([C@H](C)C2CCN(C(=O)C3(C)CC3)CC2)c2ccccc12 [Compound 190] | < 100 | 400 to 2000 | –
COc1cc(C)[nH]c(=O)c1CNC(=O)c1c(C)n([C@H](C)C2CCN(C(=O)C3(C)CCCC3)CC2)c2ccccc12 [Compound 191] | < 100 | 400 to 2000 | –

SMILES | IC50 [1] [nM] | EC50 [2] [nM] | IC50 ([1]; 2 nM EZH2, 0.2 μM 3H SAM, 0.2 μM biotinylated oligonucleosomes, 3.6 μM H3K27me3 peptide, 60 min, read-out: EZH2_nuc_BSA_Brij_1.5 (IC50)) [nM]
COc1cc(C)[nH]c(=O)c1CNC(=O)c1c(C)n([C@H](C)C2CCN(C(=O)C3(C)CN(C)C3)CC2)c2ccccc12 [Compound 192] | < 100 | > 2000 | –
COc1cc(C)[nH]c(=O)c1CNC(=O)c1c(C)n([C@H](C)C2CCN(CCC#N)CC2)c2ccccc12 [Compound 206] | < 100 | < 400 | –
COc1cc(C)[nH]c(=O)c1CNC(=O)c1c(C)n([C@H](C)C2CCN(CCS(C)(=O)=O)CC2)c2ccccc12 [Compound 207] | < 100 | > 2000 | –
CCCC(=O)N1CCC([C@@H](C)n2c(C)c(C(=O)NCc3c(OC)cc(C)[nH]c3=O)c3ccccc32)CC1 [Compound 209] | < 100 | 400 to 2000 | –
CCC(C)C(=O)N1CCC([C@@H](C)n2c(C)c(C(=O)NCc3c(OC)cc(C)[nH]c3=O)c3ccccc32)CC1 (some centres unmarked) [Compound 210] | < 100 | 400 to 2000 | –
COc1cc(C)[nH]c(=O)c1CNC(=O)c1c(C)n([C@H](C)C2CCN(C(=O)C(C)=O)CC2)c2ccccc12 [Compound 211] | < 100 | 400 to 2000 | –
COc1cc(C)[nH]c(=O)c1CNC(=O)c1c(C)n([C@H](C)C2CCN(C(=O)Cc3ccccc3)CC2)c2ccccc12 [Compound 212] | < 100 | < 400 | –
COc1cc(C)[nH]c(=O)c1CNC(=O)c1c(C)n([C@H](C)C2CCN(C(=O)CC(C)C)CC2)c2ccccc12 [Compound 213] | < 100 | < 400 | –
COc1cc(C)[nH]c(=O)c1CNC(=O)c1c(C)n([C@H](C)C2CCN(C(=O)c3ccc(C#N)cc3)CC2)c2ccccc12 [Compound 214] | < 100 | 400 to 2000 | –
COc1cc(C)[nH]c(=O)c1CNC(=O)c1c(C)n([C@H](C)C2CCN(C(=O)C3CCC3)CC2)c2ccccc12 [Compound 216] | < 100 | < 400 | –
CC[C@H](C1CCN(CC(F)F)CC1)n1c(C)c(C(=O)NCc2c(OC)cc(C)[nH]c2=O)c2ccccc21 [Compound 219] | < 100 | < 400 | –
COc1cc(C)[nH]c(=O)c1CNC(=O)c1c(C)n([C@H](C)C2CCN(CC3(C)COC3)CC2)c2ccccc12 [Compound 220] | < 100 | < 400 | –
COc1cc(C)[nH]c(=O)c1CNC(=O)c1c(C)n([C@H](C)C2CCN(C)CC2F)c2ccccc12 (some centres unmarked) [Compound 221] | < 100 | < 400 | –
COc1cc(C)[nH]c(=O)c1CNC(=O)c1c(C)n([C@H](C)C2CCN(CC3(F)COC3)CC2)c2ccccc12 [Compound 222] | < 100 | < 400 | –
COc1cc(C)[nH]c(=O)c1CNC(=O)c1c(C)n([C@H](C)C2CCN(C(=O)C3CC(F)(F)C3)CC2)c2ccccc12 [Compound 228] | < 100 | 400 to 2000 | –
COc1cc(C)[nH]c(=O)c1CNC(=O)c1c(C)n([C@H](C)C2CCN(C(=O)C3CC3(F)F)CC2)c2ccccc12 (some centres unmarked) [Compound 229] | < 100 | 400 to 2000 | –
COCC(F)(F)C(=O)N1CCC([C@@H](C)n2c(C)c(C(=O)NCc3c(OC)cc(C)[nH]c3=O)c3ccccc32)CC1 [Compound 230] | < 100 | < 400 | –
CC(=O)N1CC(N2CCC([C@@H](C)n3c(C)c(C(=O)NCc4c(C)cc(C)[nH]c4=O)c4ccccc43)CC2)C1 [Compound 231] | < 100 | 400 to 2000 | –
COc1cc(C)[nH]c(=O)c1CNC(=O)c1c(C)n([C@H](C)C2CCN(Cc3ccc(C#N)cc3)CC2)c2ccccc12 [Compound 232] | < 100 | < 400 | –
